For data set [1] the following is noted: according to Eisenburg et al., Faraday Symp. Chem. Soc. 17:109-120 (1982); cited from earlier work.
The nature of data set [2]: Wettability (wetting time), method of International IDF Standard 87:1979. The class given is physicochemical. The settings on record: for effect of coating on the wetting time: FIG. 1, coated versus uncoated amino acid; for wetting time: amino acid not coated. The source says: The wettability (wetting time) can be determined using the method of International IDF Standard 87:1979.

Take `C[C@H](N)C(=O)O` [Ala]: the “Hydrophobicity of amino acids (side chain hydrophobicity, SCH)” value (shortened to “Hydrophobicity of amino acids”) in data set [1] was “+1.0 kJ/mol”. For the same compound, in data set [2], the “effect of coating on the wetting time” value is reported as “no or only a minor effect” and the wetting time result was “short wetting time”. Regarding `N=C(N)NCCC[C@H](N)C(=O)O` [Arg], the “Hydrophobicity of amino acids” value in data set [1] is -1.79 kcal/mol.

As for `NC(=O)C[C@H](N)C(=O)O` [Asn], the “Hydrophobicity of amino acids” value in data set [1] was -0.645 kcal/mol.

In the case of `N[C@@H](CC(=O)O)C(=O)O` [Asp], the “Hydrophobicity of amino acids” value in data set [1] is -0.717 kcal/mol.

For the compound `N[C@@H](CS)C(=O)O` [Cys, cysteine], the “Hydrophobicity of amino acids” value in data set [1] was “+0.17 kJ/mol”. `N[C@@H](CCC(=O)O)C(=O)O` [Glu]: the “Hydrophobicity of amino acids” value in data set [1] was -0.621 kcal/mol. For `NCC(=O)O` [Gly, glycine], in data set [1], the “Hydrophobicity of amino acids” value is listed as “+0.67 kJ/mol”. Also, the wetting time result in data set [2] is listed as “short wetting time”.

For `N[C@@H](Cc1c[nH]cn1)C(=O)O` [His], the “Hydrophobicity of amino acids” value in data set [1] was -0.406 kcal/mol. Regarding `CC[C@H](C)[C@H](N)C(=O)O` [Ile, isoleucine], in data set [1], the “Hydrophobicity of amino acids” value is “+3.1 kJ/mol”.

Take `NCCCC[C@H](N)C(=O)O` [Lys, lysine]: the “Hydrophobicity of amino acids” value in data set [1] was -1.1 kcal/mol. On to `CSCC[C@H](N)C(=O)O` [Met, methionine], for which the “Hydrophobicity of amino acids” value in data set [1] is “+1.1 kJ/mol”.

For `N[C@@H](Cc1ccccc1)C(=O)O` [Phe, phenylalanine], the “Hydrophobicity of amino acids” value in data set [1] was “+2.5 kJ/mol”. For `O=C(O)[C@@H]1CCCN1` [Pro], the “Hydrophobicity of amino acids” value in data set [1] was -0.0693 kcal/mol.

For the compound `N[C@@H](CO)C(=O)O` [Ser], the “Hydrophobicity of amino acids” value in data set [1] was -0.263 kcal/mol. Take `C[C@@H](O)[C@H](N)C(=O)O` [Thr, threonine]: in data set [1], the “Hydrophobicity of amino acids” value was -0.179 kcal/mol. Regarding `N[C@@H](Cc1c[nH]c2ccccc12)C(=O)O` [Trp, tryptophan], in data set [1], the “Hydrophobicity of amino acids” value is reported as “+1.5 kJ/mol”. `N[C@@H](Cc1ccc(O)cc1)C(=O)O` [Tyr]: the “Hydrophobicity of amino acids” value in data set [1] was “+0.08 kJ/mol”. Further, in data set [2], the “effect of coating on the wetting time” value is listed as “no or only a minor effect” and the wetting time entry is on record as “short wetting time”. Take `CC(C)[C@H](N)C(=O)O` [Val, valine]: the “Hydrophobicity of amino acids” value in data set [1] was “+2.3 kJ/mol”.

Values taken from US9056056B2, “Processing for dispersing amino acids” (N.V. Nutricia, priority 2007, dated 2015).
